How the values were obtained:
ATR/ATRIP complex = ATR/ATRIP complex (Homo sapiens (Human), UniProt Q13535); assay: ATR/ATRIP enzymatic assay (Caliper-based); assay type: biochemical; conditions: FAM-labeled RAD17 peptide, ATP; read-out: ATR/ATRIP Enzyme IC50
Method: Human full-length FLAG-TEV-ATR and His6-ATRIP were co-expressed in HEK293 cells. […] The sample was loaded into a column, and then washed with buffer A three times. Protein was subsequently eluted with 2 ml of buffer B (buffer A+200 μg/ml 3×FLAG peptide).
The ability of new chemical matter to inhibit the ATR catalytic activity in this ATR/ATRIP complex was assessed using a Caliper-based assay. A 2× enzyme solution (i.e., 4 nM enzyme) was prepared using 1× Kinase Reaction Buffer (25 mM HEPES pH 8, 0.0055% Brij-35, 10 mM MnCl2, and 1 mM DTT). […] 10 μL of the 2× enzyme solution was transferred to an assay plate containing 60 nL of test compound (from a 3× serial dilution) in 100% DMSO. Following a 30 minute incubation at 28° C., 10 μL of the 2× peptide solution was then transferred to the same assay plate. The reaction was allowed to incubate at 28° C. for 6 hours. After adding […] of stop buffer (100 mM HEPES pH 7.5, 0.015% Brij-35, 0.2% Coating-3 Reagent (PerkinElmer, catalog # PN760050), and 50 mM EDTA), data were collected on a Caliper instrument. Conversion values were converted to inhibition values via the following equation: % inhibition=(max−conversion)/(max−min)*100, whereby “max” corresponds to the DMSO control and “min” corresponds to the low control. IC50 values were calculated using the following equation in XLFit: Y=Bottom+(Top−Bottom)/1+(IC50/X)^HillSlope).

[1] = system: ATR-driven phosphorylation of Chk1 kinase at Serine 345 in HT-29 cells; assay: pCHK1 cellular assay (CHK1 p-Ser345 AlphaScreen SureFire); conditions: Homo sapiens, HT-29, read-out: pCHK1 Cell IC50
Method: The microplate was incubated overnight (approximately 20 hours) at 37° C. with 5% CO2 and ambient 02. Stock solutions of the test compounds were prepared in 100% DMSO (Sigma, Catalog # D2650) and serially diluted 1:3 using 100% DMSO. Compounds were additionally diluted 1:33 in culture medium, and 10 ul/well were transferred to the tissue culture plate. Following the compound addition the microplate was incubated at 37° C. for 90 minutes. […] The cells were then washed with PBS and lysed using 10 uL/well […] ® Kit lysis buffer diluted to 1× in water (PerkinElmer Catalog # TGRCHK1S50K), with mixing on an orbital shaker at 500 rpm for 20 min at RT. Lysates were frozen at −20° C. overnight.
The pCHK1 ALPHASCREEN® signal was measured using an ENVISION® plate reader (PerkinElmer). IC50 values were calculated using a four-parameter logistic curve fit using Genedata Screener software. Percent of control for each compound concentration was calculated by the following formula: 100*(Compound-Min)/(Max-Min) where “Max” is the high control, DMSO, and “Min” is the low control, 5 uM ATR inhibitor.

ATR/ATRIP complex, sequence (Q13535 whole entry): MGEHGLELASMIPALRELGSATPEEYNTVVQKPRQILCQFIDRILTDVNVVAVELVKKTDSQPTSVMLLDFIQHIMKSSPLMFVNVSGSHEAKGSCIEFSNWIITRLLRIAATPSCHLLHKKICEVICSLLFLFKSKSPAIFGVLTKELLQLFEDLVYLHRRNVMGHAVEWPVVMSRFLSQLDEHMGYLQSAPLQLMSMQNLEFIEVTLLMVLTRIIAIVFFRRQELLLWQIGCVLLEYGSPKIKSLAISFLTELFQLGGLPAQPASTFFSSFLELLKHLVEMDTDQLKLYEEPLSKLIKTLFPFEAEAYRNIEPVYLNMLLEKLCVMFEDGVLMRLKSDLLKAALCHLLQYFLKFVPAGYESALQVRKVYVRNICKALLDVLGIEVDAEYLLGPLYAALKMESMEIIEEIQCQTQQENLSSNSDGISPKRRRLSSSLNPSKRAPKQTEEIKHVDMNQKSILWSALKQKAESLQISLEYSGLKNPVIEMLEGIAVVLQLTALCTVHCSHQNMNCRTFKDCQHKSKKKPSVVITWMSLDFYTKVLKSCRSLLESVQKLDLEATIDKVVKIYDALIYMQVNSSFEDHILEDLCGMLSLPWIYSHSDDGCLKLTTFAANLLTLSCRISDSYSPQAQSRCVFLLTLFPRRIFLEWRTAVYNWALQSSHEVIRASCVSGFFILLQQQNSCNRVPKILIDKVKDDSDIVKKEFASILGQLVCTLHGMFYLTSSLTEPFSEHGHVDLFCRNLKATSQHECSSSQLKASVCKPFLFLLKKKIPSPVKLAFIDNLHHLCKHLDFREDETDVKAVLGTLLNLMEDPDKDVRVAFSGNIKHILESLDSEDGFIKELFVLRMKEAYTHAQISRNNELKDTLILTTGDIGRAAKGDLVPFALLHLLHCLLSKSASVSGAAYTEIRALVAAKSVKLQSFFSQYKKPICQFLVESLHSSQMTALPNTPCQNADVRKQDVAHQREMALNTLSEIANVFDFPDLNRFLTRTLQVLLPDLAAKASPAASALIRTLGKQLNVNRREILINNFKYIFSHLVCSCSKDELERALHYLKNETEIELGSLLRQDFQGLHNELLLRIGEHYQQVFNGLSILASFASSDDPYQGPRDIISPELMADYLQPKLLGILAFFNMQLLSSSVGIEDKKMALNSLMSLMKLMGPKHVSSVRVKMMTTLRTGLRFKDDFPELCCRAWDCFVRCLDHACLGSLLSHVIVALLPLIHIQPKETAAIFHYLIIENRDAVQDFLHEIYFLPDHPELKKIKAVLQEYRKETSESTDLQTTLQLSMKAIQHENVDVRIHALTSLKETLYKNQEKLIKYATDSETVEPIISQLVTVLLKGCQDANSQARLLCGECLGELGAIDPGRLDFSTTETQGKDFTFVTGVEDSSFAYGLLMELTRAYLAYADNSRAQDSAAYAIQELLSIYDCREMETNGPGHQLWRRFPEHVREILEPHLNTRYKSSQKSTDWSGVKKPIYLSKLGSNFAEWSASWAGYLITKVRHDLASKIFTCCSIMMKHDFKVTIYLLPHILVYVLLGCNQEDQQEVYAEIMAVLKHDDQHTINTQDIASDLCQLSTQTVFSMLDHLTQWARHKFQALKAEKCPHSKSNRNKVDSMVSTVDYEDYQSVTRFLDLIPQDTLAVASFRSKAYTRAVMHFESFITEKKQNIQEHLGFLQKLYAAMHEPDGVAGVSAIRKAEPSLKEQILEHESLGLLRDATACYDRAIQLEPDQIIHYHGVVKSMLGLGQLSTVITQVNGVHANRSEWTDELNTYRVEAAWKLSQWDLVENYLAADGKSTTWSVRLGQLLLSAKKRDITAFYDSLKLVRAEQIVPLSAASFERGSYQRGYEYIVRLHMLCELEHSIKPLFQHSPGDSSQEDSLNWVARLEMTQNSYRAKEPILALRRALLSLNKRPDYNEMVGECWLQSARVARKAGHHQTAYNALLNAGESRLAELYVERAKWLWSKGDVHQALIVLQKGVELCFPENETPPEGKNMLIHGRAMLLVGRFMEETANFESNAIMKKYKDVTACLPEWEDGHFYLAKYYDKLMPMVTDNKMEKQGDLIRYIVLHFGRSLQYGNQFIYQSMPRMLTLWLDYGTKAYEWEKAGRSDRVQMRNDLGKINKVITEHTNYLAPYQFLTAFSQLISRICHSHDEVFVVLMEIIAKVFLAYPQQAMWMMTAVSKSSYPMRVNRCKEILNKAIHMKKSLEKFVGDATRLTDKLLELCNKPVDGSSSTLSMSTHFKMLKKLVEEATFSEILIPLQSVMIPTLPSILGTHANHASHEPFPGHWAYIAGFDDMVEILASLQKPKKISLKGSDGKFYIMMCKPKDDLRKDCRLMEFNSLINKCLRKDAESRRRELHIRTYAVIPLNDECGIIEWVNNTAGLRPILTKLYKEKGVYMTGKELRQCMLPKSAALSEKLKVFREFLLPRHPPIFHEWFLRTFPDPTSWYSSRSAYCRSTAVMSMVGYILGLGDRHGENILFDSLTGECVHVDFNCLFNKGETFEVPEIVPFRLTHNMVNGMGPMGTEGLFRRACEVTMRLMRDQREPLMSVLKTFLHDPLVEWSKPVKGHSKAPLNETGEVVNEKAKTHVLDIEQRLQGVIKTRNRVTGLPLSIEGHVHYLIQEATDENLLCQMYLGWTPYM
ATR/ATRIP complex, sequence (Q8WXE1 whole entry partner): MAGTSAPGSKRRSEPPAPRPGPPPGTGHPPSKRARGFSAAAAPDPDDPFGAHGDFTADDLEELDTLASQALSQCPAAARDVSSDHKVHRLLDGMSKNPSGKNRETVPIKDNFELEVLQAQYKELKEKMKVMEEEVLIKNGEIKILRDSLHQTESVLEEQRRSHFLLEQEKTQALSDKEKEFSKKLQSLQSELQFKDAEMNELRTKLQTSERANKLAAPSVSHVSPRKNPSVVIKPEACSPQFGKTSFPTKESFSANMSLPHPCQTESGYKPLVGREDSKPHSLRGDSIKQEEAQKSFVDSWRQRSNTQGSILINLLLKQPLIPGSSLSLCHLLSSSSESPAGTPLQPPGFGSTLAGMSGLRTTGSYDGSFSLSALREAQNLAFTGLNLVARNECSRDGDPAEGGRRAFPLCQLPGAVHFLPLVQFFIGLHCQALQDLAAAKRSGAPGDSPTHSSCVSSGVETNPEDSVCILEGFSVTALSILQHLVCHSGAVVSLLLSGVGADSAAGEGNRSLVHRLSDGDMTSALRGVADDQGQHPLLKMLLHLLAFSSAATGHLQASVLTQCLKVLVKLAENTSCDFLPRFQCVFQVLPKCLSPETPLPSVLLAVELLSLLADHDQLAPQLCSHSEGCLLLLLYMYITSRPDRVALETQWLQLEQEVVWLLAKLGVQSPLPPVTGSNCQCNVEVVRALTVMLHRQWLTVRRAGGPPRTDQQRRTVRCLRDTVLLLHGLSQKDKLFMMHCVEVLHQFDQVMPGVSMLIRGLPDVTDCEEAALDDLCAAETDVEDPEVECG

Row | SMILES | IC50 (ATR/ATRIP complex) [µM] | IC50 [1] [µM]
1 | C[C@@H]1COCCN1c1cc(C2CCCS2(=O)=O)nc(-c2cc(Cl)nc3[nH]ccc23)n1 (single isomer, unassigned) [Example 5a] | 0.031 | 0.177
2 | C[C@@H]1COCCN1c1cc([C@H]2CCCS2(=O)=O)nc(-c2cc(Cl)nc3[nH]ccc23)n1 (single isomer, unassigned) [Example 5b] | 0.072 | 0.435
3 | CC(C)N1CCCN(c2cc(N3CCOC[C@H]3C)nc(-c3ccnc4[nH]ccc34)n2)S1(=O)=O [Example 8, 2-{6-[(3R)-3-Methylmorpholin-4-yl]-2-{1H-pyrrolo[2,3-b]pyridin-4-yl}pyrimidin-4-yl}-6-(propan-2-yl)-1λ^6,2,6-thiadiazinane-1,1-dione] | 0.007 | 0.301
4 | C[C@@H]1COCCN1c1cc(C2CCCN(S(C)(=O)=O)C2)nc(-c2ccnc3[nH]ccc23)n1 (stereo partly drawn) [Example 10, (3R)-4-[6-(1-Methane-sulfonylpiperidin-3-yl)-2-{1H-pyrrolo[2,3-b]pyridin-4-yl}pyrimidin-4-yl]-3-methylmorpholine] | 0.007 | 0.134
5 | C[C@@H]1COCCN1c1cc(C2CCN(S(C)(=O)=O)C2)nc(-c2ccnc3[nH]ccc23)n1 (stereo partly drawn) [Example 11, (3R)-4-[6-(1-Methane-sulfonylpyrrolidin-3-yl)-2-{1H-pyrrolo[2,3-b]pyridin-4-yl}pyrimidin-4-yl]-3-methylmorpholine] | 0.008 | 0.097
6 | CC(=O)N1CCC(c2cc(N3CCOC[C@H]3C)nc(-c3ccnc4[nH]ccc34)n2)CC1 [Example 12, 1-(4-{6-[(3R)-3-Methylmorpholin-4-yl]-2-{1H-pyrrolo[2,3-b]pyridin-4-yl}pyrimidin-4-yl}piperidin-1-yl) ethan-1-one] | 0.024 | 0.128
7 | C[C@@H]1COCCN1c1cc(C2CCOCC2)nc(-c2ccnc3[nH]ccc23)n1 [Example 14, (3R)-3-Methyl-4-[6-(oxan-4-yl)-2-{1H-pyrrolo[2,3-b]-pyridin-4-yl}pyrimidin-4-yl]-morpholine] | 0.017 | 0.166
8 | CC(=O)N1CCCC(c2cc(N3CCOC[C@H]3C)nc(-c3ccnc4[nH]ccc34)n2)C1 (stereo partly drawn) [Example 15, 1-(3-{6-[(3R)-3-Methylmorpholin-4-yl]-2-{1H-pyrrolo[2,3-b]pyridin-4-yl}pyrimidin-4-yl}piperidin-1-yl) ethan-1-one] | 0.01 | 0.21
9 | COC(=O)N1CCC(c2cc(N3CCOC[C@H]3C)nc(-c3ccnc4[nH]ccc34)n2)C1 (stereo partly drawn) [Example 17, Methyl 3-{6-[(3R)-3-methylmorpholin-4-yl]-2-{1H-pyrrolo[2,3-b]pyridin-4-yl}pyrimidin-4-yl}-pyrrolidine-1-carboxylate] | 0.01 | 0.138
10 | CNC(=O)N1CCC(c2cc(N3CCOC[C@H]3C)nc(-c3ccnc4[nH]ccc34)n2)C1 (stereo partly drawn) [Example 18, N-methyl-3-{6-[(3R)-3-methylmorpholin-4-yl]-2-{1H-pyrrolo[2,3-b]pyridin-4-yl}pyrimidin-4-yl}-pyrrolidine-1-carboxamide] | 0.014 | 0.191
11 | C[C@@H]1COCCN1c1cc(C2CCN(C(=O)C3CC3)CC2)nc(-c2ccnc3[nH]ccc23)n1 [Example 21, (3R)-4-[6-(1-Cyclopropanecarbonylpiperidin-4-yl)-2-{1H-pyrrolo[2,3-b]pyridin-4-yl}pyrimidin-4-yl]-3-methylmorpholine] | 0.022 | 0.082

More lines, in order of falling IC50 (ATR/ATRIP complex), values ahead:

Row | IC50 (ATR/ATRIP complex) [µM] | IC50 [1] [µM] | SMILES
12 | 0.115 | 0.57 | CCN1CCCN(c2cc(N3CCOC[C@H]3C)nc(-c3cc(Cl)nc4[nH]ccc34)n2)S1(=O)=O [Example 9, 2-(2-{6-Chloro-1H-pyrrolo[2,3-b]pyridin-4-yl}-6-[(3R)-3-methylmorpholin-4-yl]pyrimidin-4-yl)-6-ethyl-1λ^6,2,6-thiadiazinane-1,1-dione]
13 | 0.052 | 0.505 | C[C@@H]1COCCN1c1cc(N2CCCN(C)S2(=O)=O)nc(-c2cc(Cl)nc3[nH]ccc23)n1 [Example 6, (R)-2-(2-(6-Chloro-1H-pyrrolo[2,3-b]pyridin-4-yl)-6-(3-methylmorpholino)pyrimidin-4-yl)-6-methyl-1,2,6-thiadiazinane 1,1-dioxide]
14 | 0.048 | 0.496 | C[C@@H]1COCCN1c1cc(C2CCN(C)C2=O)nc(-c2ccnc3[nH]ccc23)n1 (stereo partly drawn) [Example 3, 1-Methyl-3-(6-((R)-3-methylmorpholino)-2-(1H-pyrrolo[2,3-b]pyridin-4-yl)pyrimidin-4-yl)pyrrolidin-2-one]
15 | 0.047 | 0.921 | C[C@@H]1COCCN1c1cc(C2CCCN(C)C2=O)nc(-c2ccnc3[nH]ccc23)n1 (stereo partly drawn) [Example 19, 1-Methyl-3-{6-[(3R)-3-methylmorpholin-4-yl]-2-{1H-pyrrolo[2,3-b]pyridin-4-yl}pyrimidin-4-yl} piperidin-2-one]
16 | 0.019 | 0.242 | CC(=O)N1CCC(c2cc(N3CCOC[C@H]3C)nc(-c3ccnc4[nH]ccc34)n2)C1 (stereo partly drawn) [Example 16, 1-(3-{6-[(3R)-3-Methyl-morpholin-4-yl]-2-{1H-pyrrolo[2,3-b]pyridin-4-yl}-pyrimidin-4-yl}pyrrolidin-1-yl) ethan-1-one]
17 | 0.015 | 0.051 | CCC(=O)N1CCC(c2cc(N3CCOC[C@H]3C)nc(-c3ccnc4[nH]ccc34)n2)CC1 [Example 20, 1-(4-{6-[(3R)-3-Methylmorpholin-4-yl]-2-{1H-pyrrolo[2,3-b]pyridin-4-yl}pyrimidin-4-yl}piperidin-1-yl) propan-1-one]
18 | 0.015 | 0.109 | CCOC(=O)N1CCC(c2cc(N3CCOC[C@H]3C)nc(-c3ccnc4[nH]ccc34)n2)CC1 [Example 22, Ethyl 4-{6-[(3R)-3-methylmorpholin-4-yl]-2-{1H-pyrrolo[2,3-b]pyridin-4-yl}pyrimidin-4-yl} piperidine-1-carboxylate]
19 | 0.013 | 0.085 | COCC(=O)N1CCC(c2cc(N3CCOC[C@H]3C)nc(-c3ccnc4[nH]ccc34)n2)CC1 [Example 24, 2-Methoxy-1-(4-{6-[(3R)-3-methylmorpholin-4-yl]-2-{1H-pyrrolo[2,3-b]pyridin-4-yl}pyrimidin-4-yl}piperidin-1-yl) ethan-1-one]
20 | 0.01 | 0.186 | COC(=O)N1CCC(c2cc(N3CCOC[C@H]3C)nc(-c3ccnc4[nH]ccc34)n2)CC1 [Example 13, Methyl 4-{6-[(3R)-3-methylmorpholin-4-yl]-2-{1H-pyrrolo[2,3-b]pyridin-4-yl}pyrimidin-4-yl}piperidine-1-carboxylate]
21 | 0.007 | 0.095 | CCN1CCCN(c2cc(N3CCOC[C@H]3C)nc(-c3ccnc4[nH]ccc34)n2)S1(=O)=O [Example 1, (R)-2-Ethyl-6-(6-(3-methylmorpholino)-2-(1H-pyrrolo[2,3-b]pyridin-4-yl)pyrimidin-4-yl)-1,2,6-thiadiazinane 1,1-dioxide]
22 | 0.005 | 0.021 | C[C@@H]1COCCN1c1cc(C2CCN(S(=O)(=O)C3CC3)CC2)nc(-c2ccnc3[nH]ccc23)n1 [Example 23, (3R)-4-{6-[1-(Cyclopropane-sulfonyl)piperidin-4-yl]-2-{1H-pyrrolo[2,3-b]pyridin-4-yl}pyrimidin-4-yl}-3-methylmorpholine]
